According to US4231928A, “Antibacterial agents” (priority 1979, dated 1980):
≈ marks a conversion by molar mass, not a printed value. Where two headings read alike, the source gives them in different places.

Tests used:
Type in all cases: cell-based
[1] = test system: S. aureus; assay: Serial twofold agar dilution (Mueller-Hinton agar), S. aureus; conditions: Staphylococcus aureus
Procedure: (§1) The Minimum Inhibitory Concentrations (MIC) for sodium 6-[D-(-)-α-phenyl-α-(7-hydroxy-4-oxo-4H-pyrimido[1,2-b]pyridazin-3-ylcarboxamido)acetamido]penicillanate (BB-P598) and sulbenicillin were determined by the serial twofold agar dilution method using Steers' apparatus on Mueller-Hinton agar plates against 31 test organisms for the primary screening (Table 1) and also against 61 strains of Pseudomonas aeruginosa for the secondary evaluation (Table 2).
(§2) Minimum Inhibitory Concentrations (MIC) for sodium 6-[D-(-)-α-phenyl-α-(7-hydroxy-4-oxo-4H-pyrimido[1,2-b]pyridazin-3-ylcarboxamido)acetamido]pencillanate (BB-P598), sodium 6-[D-(-)-α-(4-hydroxyphenyl)-α-(7-hydroxy-4-oxo-4H-pyrimido[1,2-b]pyridazin-3-ylcarboxamido)acetamido]-penicillanate (BB-P642) and carbenicillin were determined by the serial twofold agar dilution method using Steers' apparatus on Mueller-Hinton agar plates against 31 tests organisms (Table 8) and also against 61 strains of Pseudomonas aeruginosa (Table 9). In terms of mean % relative activity compared with carbenicillin, compounds BB-B598 and BB-P642 were 856% and 1319% as active as carbenicillin against the 61 Pseudomonas strains of Table 9.

[2] = test system: S. marcescens; assay: Serial twofold agar dilution (Mueller-Hinton agar), S. marcescens; conditions: Serratia marcescens, S. marcescens A20019, Table 1
Procedure: as §1, §2

[3] = test system: Klebsiella sp.; assay: Serial twofold agar dilution (Mueller-Hinton agar), Klebsiella sp.
Procedure: as §1, §2

[4] = test system: P. vulgaris; assay: Serial twofold agar dilution (Mueller-Hinton agar), P. vulgaris; conditions: Proteus vulgaris, P. vulgaris A9539, Table 1, read-out: MIC
Procedure: as §1, §2

[5] = test system: Pseudomonas sp.; assay: Serial twofold agar dilution (Mueller-Hinton agar), Pseudomonas sp.; conditions: Pseudomonas sp. A20358, Table 1, read-out: MIC
Procedure: as §1, §2

[6] = test system: P. mirabilis; assay: Serial twofold agar dilution (Mueller-Hinton agar), P. mirabilis; conditions: Proteus mirabilis, P. mirabilis A9900; Mueller-Hinton agar; Table 1; read-out: MIC
Procedure: as §1, §2

[7] = test system: S. enteritidis; assay: Serial twofold agar dilution (Mueller-Hinton agar), S. enteritidis; conditions: Salmonella enterica, S. enteritidis A9531, Table 1, read-out: MIC
Procedure: as §1, §2

[8] = test system: P. morganii; assay: Serial twofold agar dilution (Mueller-Hinton agar), P. morganii; conditions: Morganella morganii, P. morganii A9553, Table 1, read-out: MIC
Procedure: as §1, §2

[9] = test system: E. coli; assay: Serial twofold agar dilution (Mueller-Hinton agar), E. coli; conditions: Escherichia coli
Procedure: as §1, §2

[10] = test system: K. pneumoniae; assay: Serial twofold agar dilution (Mueller-Hinton agar), K. pneumoniae; conditions: Klebsiella pneumoniae, K. pneumoniae A9977, Table 1, read-out: MIC
Procedure: as §1, §2

[11] = test system: E. cloacae; assay: Serial twofold agar dilution (Mueller-Hinton agar), E. cloacae; conditions: Enterobacter cloacae
Procedure: as §1, §2

[12] = test system: Pseudomonas aeruginosa; assay: Serial twofold agar dilution (Mueller-Hinton agar), P. aeruginosa; conditions: Pseudomonas aeruginosa
Procedure: as §1, §2

CC1(C)S[C@@H]2[C@H](NC(=O)C(c3ccccc3)S(=O)(=O)O)C(=O)N2[C@H]1C(=O)O (stereo partly shown) [Sulbenicillin, reference compound]
MIC ([1]; S. aureus BX-1633 A15097, Table 1, read-out: MIC): 12.5 µg/mL (≈ 30.2 µM) | MIC ([1]; S. aureus BX-1633 A20701, Table 1, read-out: MIC): 50 µg/mL (≈ 121 µM) | MIC ([1]; S. aureus Smith A9537, Table 1, read-out: MIC): 1.6 µg/mL (≈ 3.86 µM) | MIC [2]: 6.3 µg/mL (≈ 15.2 µM) | MIC [3]: 12.5 µg/mL (≈ 30.2 µM) | MIC [4]: 1.6 µg/mL (≈ 3.86 µM) | MIC [5]: 3.1 µg/mL (≈ 7.48 µM) | MIC [6]: 0.8 µg/mL (≈ 1.93 µM) | MIC [7]: 1.6 µg/mL (≈ 3.86 µM) | MIC [8]: > 100 µg/mL | MIC ([9]; E. coli Juhl A9435, Table 1): 12.5 µg/mL (≈ 30.2 µM) | MIC ([9]; E. coli Juhl A9844, Table 1, read-out: MIC): 0.8 µg/mL (≈ 1.93 µM) | MIC ([9]; E. coli Juhl A15119, Table 1, read-out: MIC): 3.1 µg/mL (≈ 7.48 µM) | MIC ([9]; E. coli Juhl A20366, Table 1, read-out: MIC): > 100 µg/mL | MIC ([9]; E. coli Juhl A20520, Table 1, read-out: MIC): 6.3 µg/mL (≈ 15.2 µM) | MIC ([9]; E. coli Juhl A20664, Table 1, read-out: MIC): 3.1 µg/mL (≈ 7.48 µM) | MIC ([9]; E. coli Juhl A20732, Table 1, read-out: MIC): > 100 µg/mL | MIC ([9]; E. coli Juhl A20898, Table 1, read-out: MIC): > 100 µg/mL | MIC ([9]; E. coli NIHJ, Table 1, read-out: MIC): 0.8 µg/mL (≈ 1.93 µM) | MIC [10]: 3.1 µg/mL (≈ 7.48 µM) | MIC ([11]; E. cloacae A9656, Table 1): 6.3 µg/mL (≈ 15.2 µM) | MIC ([11]; E. cloacae A9657, Table 1): 100 µg/mL (≈ 241 µM) | MIC ([11]; E. cloacae A9659, Table 1): 12.5 µg/mL (≈ 30.2 µM) | MIC ([12]; 61 strains of P. aeruginosa, Table 2, read-out: Geometric mean of MIC): 31.4 µg/mL (≈ 75.8 µM) | MIC ([12]; GN315, Pa-27 GN315 A21294, Mueller-Hinton agar, Table 2, read-out: MIC): 50 µg/mL (≈ 121 µM) | MIC ([12]; GN4925, Pa-45 GN4925, Mueller-Hinton agar, Table 2, read-out: MIC): 50 µg/mL (≈ 121 µM) | MIC ([12]; P. aeruginosa A9843, Mueller-Hinton agar, Table 1, read-out: MIC): 25 µg/mL (≈ 60.3 µM) | MIC ([12]; P. aeruginosa A9930, Mueller-Hinton agar, Table 1, read-out: MIC): 12.5 µg/mL (≈ 30.2 µM) | MIC ([12]; P. aeruginosa A15150, Mueller-Hinton agar, Table 1, read-out: MIC): 12.5 µg/mL (≈ 30.2 µM) | MIC ([12]; P. aeruginosa A20229, Mueller-Hinton agar, Table 1, read-out: MIC): 12.5 µg/mL (≈ 30.2 µM) | MIC ([12]; P. aeruginosa A20717, Mueller-Hinton agar, Table 1, read-out: MIC): 100 µg/mL (≈ 241 µM) | MIC ([12]; Pa-2 VA A9923, Mueller-Hinton agar, Table 2, read-out: MIC): 12.5 µg/mL (≈ 30.2 µM) | MIC ([12]; Pa-3 1449VA A9930, Mueller-Hinton agar, Table 2, read-out: MIC): 6.3 µg/mL (≈ 15.2 µM) | MIC ([12]; Pa-4 H9 D113 A21295, Mueller-Hinton agar, Table 2, read-out: MIC): 25 µg/mL (≈ 60.3 µM) | MIC ([12]; Pa-6 No. 5 A15194, Mueller-Hinton agar, Table 2, read-out: MIC): > 100 µg/mL | MIC ([12]; Pa-10 A20479, Mueller-Hinton agar, Table 2, read-out: MIC): > 100 µg/mL | MIC ([12]; Pa-12 A20653, Mueller-Hinton agar, Table 2, read-out: MIC): 50 µg/mL (≈ 121 µM) | MIC ([12]; Pa-15 A20717, Mueller-Hinton agar, Table 2, read-out: MIC): 100 µg/mL (≈ 241 µM) | MIC ([12]; Pa-16 #130 A20718, Mueller-Hinton agar, Table 2, read-out: MIC): 6.3 µg/mL (≈ 15.2 µM) | MIC ([12]; Pa-17 H6 D114, Mueller-Hinton agar, Table 2, read-out: MIC): 12.5 µg/mL (≈ 30.2 µM) | MIC ([12]; Pa-18 H8 D121, Mueller-Hinton agar, Table 2, read-out: MIC): 12.5 µg/mL (≈ 30.2 µM) | MIC ([12]; Pa-19 A20229, Mueller-Hinton agar, Table 2, read-out: MIC): 12.5 µg/mL (≈ 30.2 µM) | MIC ([12]; Pa-23 A20741, Mueller-Hinton agar, Table 2, read-out: MIC): 50 µg/mL (≈ 121 µM) | MIC ([12]; Pa-24 A20896, Mueller-Hinton agar, Table 2, read-out: MIC): 100 µg/mL (≈ 241 µM) | MIC ([12]; Pa-25 A20897, Mueller-Hinton agar, Table 2, read-out: MIC): 12.5 µg/mL (≈ 30.2 µM) | MIC ([12]; Pa-26 Ps32, Mueller-Hinton agar, Table 2, read-out: MIC): 12.5 µg/mL (≈ 30.2 µM) | MIC ([12]; Pa-28 CPH10527/72, Mueller-Hinton agar, Table 2, read-out: MIC): 50 µg/mL (≈ 121 µM) | MIC ([12]; Pa-29 D122, Mueller-Hinton agar, Table 2, read-out: MIC): 25 µg/mL (≈ 60.3 µM) | MIC ([12]; Pa-31 A20594, Mueller-Hinton agar, Table 2, read-out: MIC): 12.5 µg/mL (≈ 30.2 µM) | MIC ([12]; Pa-33 A20598, Mueller-Hinton agar, Table 2, read-out: MIC): 100 µg/mL (≈ 241 µM) | MIC ([12]; Pa-35, Mueller-Hinton agar, Table 2, read-out: MIC): 100 µg/mL (≈ 241 µM) | MIC ([12]; Pa-36, Mueller-Hinton agar, Table 2, read-out: MIC): 1.6 µg/mL (≈ 3.86 µM) | MIC ([12]; Pa-37 A20130, Mueller-Hinton agar, Table 2, read-out: MIC): 50 µg/mL (≈ 121 µM) | MIC ([12]; Pa-38 A20349, Mueller-Hinton agar, Table 2, read-out: MIC): 50 µg/mL (≈ 121 µM) | MIC ([12]; Pa-42 A21229, Mueller-Hinton agar, Table 2, read-out: MIC): > 100 µg/mL | MIC ([12]; Pa-43 A21233, Mueller-Hinton agar, Table 2, read-out: MIC): 50 µg/mL (≈ 121 µM) | MIC ([12]; Pa-44 A21274, Mueller-Hinton agar, Table 2, read-out: MIC): 50 µg/mL (≈ 121 µM) | MIC ([12]; Pa-54 A20128, Mueller-Hinton agar, Table 2, read-out: MIC): 50 µg/mL (≈ 121 µM) | MIC ([12]; Pa-58 A20557, Mueller-Hinton agar, Table 2, read-out: MIC): 50 µg/mL (≈ 121 µM) | MIC ([12]; Pa-59 A20574, Mueller-Hinton agar, Table 2, read-out: MIC): 50 µg/mL (≈ 121 µM) | MIC ([12]; Pa-60 A20602, Mueller-Hinton agar, Table 2, read-out: MIC): 12.5 µg/mL (≈ 30.2 µM) | MIC ([12]; Pa-61 A20726, Mueller-Hinton agar, Table 2, read-out: MIC): 50 µg/mL (≈ 121 µM) | MIC ([12]; Pa-62 A21213, Mueller-Hinton agar, Table 2, read-out: MIC): > 100 µg/mL | MIC ([12]; Pa-67 A21509, Mueller-Hinton agar, Table 2, read-out: MIC): 50 µg/mL (≈ 121 µM) | MIC ([12]; Pa-68 A21510, Mueller-Hinton agar, Table 2, read-out: MIC): 50 µg/mL (≈ 121 µM) | MIC ([12]; Pa-69 A21587, Mueller-Hinton agar, Table 2, read-out: MIC): 50 µg/mL (≈ 121 µM) | MIC ([12]; Pa-70 K-Ps102 (CR-102), Mueller-Hinton agar, Table 2, read-out: MIC): 25 µg/mL (≈ 60.3 µM)
